Results on eleven compounds are retold here after patent US20250281424A1 (New York Blood Center, Inc, priority 2020, published 2025).

The nature of series [1]: Human microsome stability. Type of series: in vitro ADME. The settings on record: Human microsomes, compound conc = 0.5 μM, n = 1; read-out: Human microsome stability Half life t1/2. From the text: (§1) Certain exemplified compounds were examined for ADMET (absorption, distribution, metabolism, excretion and toxicity) profiling using conventional assays with the results shown in the Tables 3A-3C below.

A further series has as its target T1, human PF4 (Homo sapiens, UniProt P02776).
T1 construct: PF4 is a 70 amino acid, lysine-rich 7.8 kDa platelet-specific protein; made in house; host or cells: Escherichia coli BL21DE3 pLysS (pT7-7) and/or Drosophila S2 cells
T1 sequence (P02776 32-101): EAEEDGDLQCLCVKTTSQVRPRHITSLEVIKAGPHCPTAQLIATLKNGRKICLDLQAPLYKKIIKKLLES
Description: Inhibition of PF4 tetramer formation (BS3 cross-linking, SDS-PAGE). The settings on record: for inhibition at 5 µM: 5 μM inhibitor; for inhibition at 5 µM / inhibition at 10 µM: read-out: % inhibition of PF4 tetramer formation at single concentration of inhibitor; for inhibition at 10 µM: 10 μM inhibitor (column A); for IC50: read-out: IC50 of PF4 tetramer formation inhibition. Type of series: biochemical. Summed up: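 Monomer, dimer, trimer and tetramer fractions were quantified by densitometry after reducing 12% SDS-PAGE of BS3-cross-linked (0.2 mM, 30 min, room temperature) PF4. Before cross-linking, 10 μg/ml E. coli-expressed human WT PF4 in PBS was exposed to compound for 15 min at 37° C or 60 min at room temperature; controls lacked compound.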

Series [2] relates to FcγRIIA transgenic murine platelets. Description: PF4-KKO induced platelet activation, P-selectin, FcγRIIA transgenic murine platelets. Type of series: cell-based, mouse. The conditions noted are these: for normalized P-selectin levels: FIG. 22; for preventing P-selectin expression: FcγRIIA transgenic murine platelets, 50 μM compound, 37.5 μg/ml PF4, 50 μg/ml KKO (FIGS. 14-21). How it is done: Whole blood was diluted with 1× Tyrode buffer (5 mM N-2-hydroxyethylpiperazine-N′-2-ethanesulfonic acid, 0.1% BSA, 134 mM NaCl, 0.3 mM NaH2PO4, 3 mM KCl, 2 mM MgCl2, 12 mM NaHCO3, 5 mM glucose) with 0.02 U/ml apyrase and 1 μM PGE1 and centrifuged at 100 g for 10 min. Platelet rich plasma (PRP) was carefully removed and centrifuged at 1000 g for 5 min. Platelet pellet was resuspended in Tyrode buffer with 0.02 U/ml apyrase at 2×10^8/ml concentration at 37° C. PF4 antagonists are diluted in Tyrode buffer, and are incubated with 10 μg/ml human PF4 purified protein at room temperature for 30 min. The PF4-drug complex is then incubated with 1×10^8/ml platelets with 1 mM CaCl2, 0.1% BSA at 37° C. for 10 min. 40 μg/ml KKO and 10 μg/ml anti-CD62P (P-selectin) antibodies are added into the reaction. One milliliter ice-cold PBS is added to each reaction after 5 min of incubation. Labelled platelets are then analyzed by a BD Accuri C6 flow cytometer. The results are represented by both the mean fluorescence intensity and by the percentage of positive platelets.
37.5 μg/ml PF4 with/without 50 μM of the exemplified compound incubated with 3×10^7/ml platelets; 50 μg/ml KKO.

The test system of the next series is human platelets. The series is described as follows: PF4-KKO induced platelet activation, P-selectin, human platelets. The series is classed as cell-based. The settings on record: human platelet activation assays; 20 μM and 40 μM (FIGS. 8 and 9).
Series [3] is described as follows: Mouse microsome stability. The series is classed as in vitro ADME. The conditions noted are these: Mouse microsomes, compound conc = 0.5 μM, n = 1; read-out: Mouse microsome stability Half life t1/2.
Description: as §1

Series [4] has as its target T2, ultra large complexes (ULC) between PF4 tetramers and heparin (Homo sapiens, UniProt P02776).
T2 construct: platelet factor 4 which is a 70 amino acid, lysine-rich, 7.8 kDa platelet-specific protein
T2 sequence (P02776 32-101): T1 sequence (P02776 32-101)
Description: Inhibition of formation of ultra large complexes (ULC) of PF4 tetramers and heparin. The series is classed as biochemical. The conditions noted are these: IC50 values are +/−20%. The method, then: Since ULCs are formed as part of a dynamic equilibrium between heparin and PF4, dynamic light scattering (DLS) was performed to measure the ability of the exemplified compounds to disrupt preformed ULCs. Samples were analyzed and included PF4 incubated in the absence or presence of unfractionated heparin (UFH) for 20 min at room temperature at PF4 to heparin ratios (PHR) of 1:0 (no heparin), 2:1, and 0.64:1. The samples were then analyzed using photon correlation spectroscopy on a DynaPro® DLS instrument and Dynamics® software (V6.7.6; […]) to obtain correlation function. The results of the DLS analysis indicate the percentage of ULCs and small PF4 particles. Data for the small particles (a population of particles with a mean hydrodynamic diameter of about 1 nm) and data for the large particles (a population of particles with a mean hydrodynamic diameter of about 300 nm) is assessed. Data are expressed as the percent of total intensity from each measurement, the mean of 10 measurements, and representative of two such experiments.
ELISA measurement and gel filtration measurement of ULC inhibition were performed as described in International Patent Publication No. WO2013/142328, which is incorporated herein by reference. Similarly, assays in which heparin concentrations are varied to determine the effect on ULC inhibition were performed as described in that publication.
Certain compounds were evaluated for their ability to inhibit formation of ultra large complexes (ULC) between PF4 tetramers and heparin.

Series [5] can be described thus: Cytotoxicity NIH3T3 (MTS reduction). The settings on record: mouse, NIH3T3 cells, 1 hour exposure in the absence of serum, N = 3, read-out: Cytotox NIH3T3 EC50. Type of series: cell-based. Background: Tetrazolium assays rely on reduction of a dye to a coloured formazan, in cell work by metabolically active cells.
Series [6] in a line: Cytotoxicity HepG2 (MTS reduction). Type of series: cell-based. The conditions noted are these: human, HepG2 cells; read-out: Cytotox HepG2 EC50.

Entries after “also recorded” stand apart in the source; their conditions may differ. Some results are limits rather than exact numbers.

By IC50 is commonly meant the concentration that inhibits the measured activity by half. Take `O=C(O)CCNC(=O)C1C(=O)c2ccc(C(=O)c3ccc4c(c3)C(=O)C(C(=O)NCCC(=O)O)C4=O)cc2C1=O` (stereo not drawn) [Example 32, 5,5′-carbonylbis(3-[(1,3-dioxo-indane-2-carbonyl)-amino]-propionic acid)]: in series [1], the half-life at 0.5 μM came to 0.9 h. Also, at human PF4, the inhibition at 5 µM amounted to 86%, the inhibition at 10 µM is 91% and the IC50 was 2.99 µM. Also, in series [2], the “normalized P-selectin levels” value is “modulate the activity of normalized P-selectin; also recorded: inhibition” and the “preventing P-selectin expression” value was “efficacy”. Further, the “PF4-KKO induced platelet activation using P-selectin as a marker” value with human platelets is listed as “inhibitory”. The half-life at 0.5 μM in series [3] was over 3 h.
Consider `O=C(c1ccc2c(c1)C(=O)C(C(=O)NCCc1ccc(F)cc1)C2=O)c1ccc2c(c1)C(=O)C(C(=O)NCCc1ccc(F)cc1)C2=O` (stereo not drawn) [Example 22, 5,5′-carbonylbis(1,3-dioxo-indan-2-carboxylic acid (2-(4-fluorophenyl)ethyl)-amide)], for which the half-life at 0.5 μM in series [1] was determined as 0.995 h. Also, on human PF4, the inhibition at 5 µM is 66%, the inhibition at 10 µM was 76% and the half-inhibitory concentration (IC50) came to 1.87 µM. In series [2], the “normalized P-selectin levels” value is reported as “modulate the activity of normalized P-selectin; also recorded: inhibition” and the “preventing P-selectin expression” value is “efficacy”. Also, the “PF4-KKO induced platelet activation using P-selectin as a marker” value in the series with human platelets is “inhibitory”. For the same compound, the half-life at 0.5 μM in series [3] stood at 0.798 h.
As for `O=C(NCCc1ccccc1)C1C(=O)c2ccc(S(=O)(=O)c3ccc4c(c3)C(=O)C(C(=O)NCCc3ccccc3)C4=O)cc2C1=O` (stereo not drawn) [Example 33, 5,5′-sulphonylbis(1,3-dioxo-indan-2-carboxylic acid (2-phenylethyl)-amide)], at human PF4, the inhibition at 5 µM worked out at 67%, the inhibition at 10 µM was 76% and the IC50 worked out at 1.6 µM. In series [2], the “normalized P-selectin levels” value was “inhibition” and the “preventing P-selectin expression” value is “efficacy”. In addition, the “PF4-KKO induced platelet activation using P-selectin as a marker” value with human platelets was “inhibitory”.
Take `COc1ccccc1NC(=O)C1C(=O)c2ccc(C(=O)c3ccc4c(c3)C(=O)C(C(=O)Nc3ccccc3OC)C4=O)cc2C1=O` (stereo not drawn) [Example 28, 5,5′-carbonylbis(1,3-dioxo-indan-2-carboxylic acid (2-methoxyphenyl)-amide)]: in series [1], the half-life at 0.5 μM is over 3 h. Besides, at human PF4, the inhibition at 5 µM was 82%, the inhibition at 10 µM amounted to 65% and the IC50 turned out to be 0.64 µM. For the same compound, in series [2], the “normalized P-selectin levels” value is recorded as “modulate the activity of normalized P-selectin; also recorded: inhibition” and the “preventing P-selectin expression” value is recorded as “efficacy”. In the series with human platelets, the “PF4-KKO induced platelet activation using P-selectin as a marker” value is on record as “inhibitory”. Also, in series [3], the half-life at 0.5 μM came to 0.87 h.
Regarding `COc1cccc(NC(=O)C2C(=O)c3ccc(S(=O)(=O)c4ccc5c(c4)C(=O)C(C(=O)Nc4cccc(OC)c4)C5=O)cc3C2=O)c1` (stereo not drawn) [Example 36, 5,5′-sulphonylbis(1,3-dioxo-indan-2-carboxylic acid (3-methoxyphenyl)-amide)], at human PF4, the inhibition at 5 µM came out at 65%, the inhibition at 10 µM was 70% and the IC50 stood at 1.19 µM. In addition, in series [2], the “normalized P-selectin levels” value is on record as “modulate the activity of normalized P-selectin; also recorded: inhibition” and the “preventing P-selectin expression” value is reported as “efficacy”.
On to `O=C(c1ccc2c(c1)C(=O)C(C(=O)NCCc1ccc3c(c1)OCO3)C2=O)c1ccc2c(c1)C(=O)C(C(=O)NCCc1ccc3c(c1)OCO3)C2=O` (stereo not drawn) [Example 18, 5,5′-carbonylbis(1,3-dioxo-indan-2-carboxylic acid (2-benzo[1,3]dioxol-5-yl-ethyl)-amide)], for which, on human PF4, the inhibition at 5 µM came to 65%, the inhibition at 10 µM worked out at 75% and the IC50 stood at 1.81 µM. For the same compound, the “PF4-KKO induced platelet activation using P-selectin as a marker” value in the series with human platelets is “inhibitory”.
Take `O=C(c1ccc2c(c1)C(=O)C(C(=O)Nc1ccc3c(c1)OCCO3)C2=O)c1ccc2c(c1)C(=O)C(C(=O)Nc1ccc3c(c1)OCCO3)C2=O` (stereo not drawn) [Example 29, 5,5′-carbonylbis(1,3-dioxo-indan-2-carboxylic acid (n-(2,3-dihydro-benzo[1,4]dioxin-6-yl))-amide)]: the IC50 at human PF4 amounted to 3.02 µM. In addition, in series [2], the “normalized P-selectin levels” value is “modulate the activity of normalized P-selectin; also recorded: inhibition” and the “preventing P-selectin expression” value is “efficacy”. The “PF4-KKO induced platelet activation using P-selectin as a marker” value with human platelets is on record as “inhibitory”.
For `O=C(NC1CC1)C1C(=O)c2ccc(S(=O)(=O)c3ccc4c(c3)C(=O)C(C(=O)NC3CC3)C4=O)cc2C1=O` (stereo not drawn) [Example 34, 5,5′-sulphonylbis(1,3-dioxo-indan-2-carboxylic acid (cyclopropyl)-amide)], the half-life at 0.5 μM in series [1] was over 3 h. Moreover, on human PF4, the inhibition at 5 µM was determined as 60%, the inhibition at 10 µM was 81% and the IC50 turned out to be 1.06 µM. Besides, in series [2], the “normalized P-selectin levels” value was “modulate the activity of normalized P-selectin; also recorded: inhibition” and the “preventing P-selectin expression” value was “efficacy”. Moreover, the “PF4-KKO induced platelet activation using P-selectin as a marker” value with human platelets is listed as “inhibitory”. In addition, in series [3], the half-life at 0.5 μM came to 1.44 h.
What is called EC50 is the concentration at which the effect is half-maximal. Regarding `CC(=O)C1(C(=O)OC(C)(C)C)C(=O)c2ccc(Oc3ccc4c(c3)C(=O)C(C(C)=O)(C(=O)OC(C)(C)C)C4=O)cc2C1=O` (stereo not drawn) [Example 5, 5-(2-acetyl-2-carbo-t-butoxy-2,3-dihydro-1,3dioxo-1h-inden-6-yloxy)-2-acetyl-2-carbo-t-butoxy-2,3-dihydro-1,3-dioxo-1h-indene], the IC50 at human PF4 is 10.4 µM; in series [4], 10 µM. Moreover, the EC50 at 1 h in series [5] was over 3350 µg/mL. Further, the EC50 in series [6] was over 3350 µg/mL.
Turning to `CC(=O)C1C(=O)c2ccc(C(c3ccc4c(c3)C(=O)C(C(C)=O)C4=O)(C(F)(F)F)C(F)(F)F)cc2C1=O` (stereo not drawn) [Example 11, 2-acetyl-5-[(2-acetyl-2,3-dihydro-1,3dioxo-1h-inden-5-yl)-1,1,1,3,3,3-hexafluoropropan-2-yl]-2,3-dihydro-1,3-dioxo-1h-indene], the half-life at 0.5 μM is over 3 h in series [1] and 1.75 h in series [3]. Besides, the IC50 on human PF4 was 1.45 µM. For the same compound, the “PF4-KKO induced platelet activation using P-selectin as a marker” value in the series with human platelets is given as “inhibitory”.
Regarding `COc1ccc(NC(=O)C2C(=O)c3ccc(C(=O)c4ccc5c(c4)C(=O)C(C(=O)Nc4ccc(OC)cc4)C5=O)cc3C2=O)cc1` (stereo not drawn) [Example 31, 5,5′-carbonylbis(1,3-dioxo-indan-2-carboxylic acid (4-methoxyphenyl)-amide)], the IC50 at human PF4 came out at 1.74 µM. In addition, in series [2], the “normalized P-selectin levels” value is “modulate the activity of normalized P-selectin; also recorded: inhibition” and the “preventing P-selectin expression” value is “efficacy”. Besides, the “PF4-KKO induced platelet activation using P-selectin as a marker” value in the series on human platelets was “inhibitory”.
